Results reported in ChEMBL document CHEMBL5726023, “Fused azaheterocyclic compounds and their use as AMPA receptor modulators” (2018).

Assay: Calcium Flux Assay: An in vitro assay was used to determine the potency of test compounds as inhibitors of the glutamate response of the channel formed by GluA1o-γ8. To ensure a 1:1 stoichiometry of GluA1o and γ8 subunits in the expressed channel, a fusion of the cDNAs for GRIA1o and CACNG8 was used. Following Shi et al (2009) The stoichiometry of AMPA receptors and TARPs varies by neuronal cell type. Neuron 62(5): 633-640), the C-terminus of the cDNA for GRIA1o was fused to the N-terminus of the cDNA for γ8. The linker sequence was QQQQQQQQQQEFAT. Channels expressed with this construct appear to have similar properties to channels formed by co-expression of GRIA1o with an excess of CACNG8 (Shi et al. 2009). A clonal cell line in HEK293 cells stably expressing this construct, with a geneticin selection marker, was generated for use in this assay.Cell expressing the GRIA1o-CACNG8 fusion construct were grown in a monolayer in 96- or 384-well microtiter plates. They were washed with assay buffer (135 mM NaCl, 4 mM KCl, 3 mM CaCl2, 1 mM MgCl2, 5 mM glucose, 10 mM HEPES, pH 7.4, 300 mOs) using a Biotek EL405 plate washer. The cells were then loaded with a calcium-sensitive dye (Calcium-5 or Calcium-6, Molecular Devices) and the test compounds at a range of concentrations. […]
Format: cell-based

With Cc1cc(-c2c(C(F)(F)F)ccn3cc(C(C)C)nc23)cc2cn[nH]c12 as the compound, how does the IC50 read?
Its IC50 is 0.1 nM.
